Results on three molecules are retold here after patent US8791048B2, “Herbicidal compositions comprising 4-amino-3-chloro-5-fluoro-6-(4-chloro-2-fluoro-3-methoxyphenyl) pyridine-2-carboxylic acid or a derivative thereof and clomazone” (Dow Agrosciences LLC, priority 2012, dated 2014).

Holding throughout (assay type): in vivo
The subject of assay [1] is ECHCG Echinochloa crus-galli (L.) Beauv.; barnyardgrass. The assay is described as follows: Postemergence foliar-applied greenhouse trial, weed control in direct-seeded rice. The source says:
(§1) Results in Examples I and II are greenhouse trial results.
(§2) Seeds or nutlets of the desired test plant species were planted in a soil matrix prepared by mixing a loam or sandy loam soil (e.g., 28.6 percent silt, 18.8 percent clay, and 52.6 percent sand, with a pH of about 5.8 and an organic matter content of about 1.8 percent) and calcareous grit in an 80 to 20 ratio. The soil matrix was contained in plastic pots with a volume of 1 quart and a surface area of 83.6 square centimeters (cm^2). When required to ensure good germination and healthy plants, a fungicide treatment and/or other chemical or physical treatment was applied. The plants were grown for 8-22 days in a greenhouse with an approximate 14 h photoperiod which was maintained at about 29° C. during the day and 26° C. during the night. Nutrients (Peters Excel® 15-5-15 5-Ca 2-Mg and iron chelate) were applied in the irrigation solution as needed and water was added on a regular basis. Supplemental lighting was provided with overhead metal halide 1000-Watt lamps as necessary. The plants were employed for testing when they reached the first through fourth true leaf stage.
(§3) Treatments consisted of the acid or esters of 4-amino-3-chloro-5-fluoro-6-(4-chloro-2-fluoro-3-methoxy-phenyl)pyridine-2-carboxylic acid (Compound A), each formulated as an SC (suspension concentrate), and various herbicidal components alone and in combination. Forms of compound A were applied on an acid equivalent basis.
(§4) Other herbicidal components were applied on an active ingredient basis and consisted of clomazone formulated as Command® 3ME. Treatment requirements were calculated based upon the rates being tested, the concentration of active ingredient or acid equivalent in the formulation, and a 12 mL application volume at a rate of 187 L/ha.
(§5) For treatments comprised of formulated compounds, measured amounts of compounds were placed individually in 25 mL glass vials and diluted in a volume of 1.25% (v/v) Agri-Dex® crop oil concentrated to obtain 12× stock solutions. […] Application solutions were prepared by adding an appropriate amount of each stock solution (e.g., 1 mL) and diluted to the appropriate final concentrations with the addition of 10 mL of an aqueous mixture of 1.25% (v/v) crop oil concentrate so that the final spray solutions contained 1.25+/−0.05% (v/v) crop oil concentrate.
(§6) All stock solutions and applications solutions were visually inspected for compound compatibility prior to application. Spray solutions were applied to the plant material with an overhead Mandel track sprayer equipped with a 8002E nozzles calibrated to deliver 187 L/ha over an application area of 0.503 m^2 at a spray height of 18 to 20 inches (46 to 50 cm) above average plant canopy height. Control plants were sprayed in the same manner with the solvent blank.
(§7) The treated plants and control plants were placed in a greenhouse as described above and watered by sub-irrigation to prevent wash-off of the test compounds. After approximately 3 weeks, the condition of the test plants as compared with that of the untreated plants was determined visually and scored on a scale of 0 to 100 percent where 0 corresponds to no injury or growth inhibition and 100 corresponds to complete kill.
(§8) Colby's equation was used to determine the herbicidal effects expected from the mixtures (Colby, S. R. 1967. Calculation of the synergistic and antagonistic response of herbicide combinations. Weeds 15:20-22.).
(§9) The following equation was used to calculate the expected activity of mixtures containing two active ingredients, A and B: Expected=A+B−(A×B/100)
(§10) A=observed efficacy of active ingredient A at the same concentration as used in the mixture.
(§11) B=observed efficacy of active ingredient B at the same concentration as used in the mixture.

The subject of assay [2] is IPOHE Ipomoea hederacea Jacq.; morningglory, ivyleaf. The description is as above.
Excerpt: as §1, §2, §3, §4, §5, §6, §7, §8, §9, §10, §11

Assay [3] concerns ECHCO Echinochloa colona (L.) Link; junglerice. The description is as above.
Excerpt: as §1, §2, §3, §4, §5, §6, §7, §8, §9, §10, §11

Assay [4] has as its system LEFCH Leptochloa chinensis (L.) Nees; sprangletop, Chinese. The assay is described as above.
Excerpt: as §1, §2, §3, §4, §5, §6, §7, §8, §9, §10, §11

Assay [5] relates to DIGSA Digitaria sanguinalis (L.) Scop.; crabgrass, large. Described as above.
Excerpt: as §1, §2, §3, §4, §5, §6, §7, §8, §9, §10, §11

In assay [6] the test system is CYPRO Cyperus rotundus L. nutsedge, purple. The assay can be described thus: In-water applied greenhouse trial, weed control in transplanted paddy rice. The procedure:
as §1
(§12) Weed seeds or nutlets of the desired test plant species were planted in puddled soil (mud) prepared by mixing a shredded, non-sterilized mineral soil (50.5 percent silt, 25.5 percent clay, and 24 percent sand, with a pH of about 7.6 and an organic matter content of about 2.9 percent) and water at a 1:1 volumetric ratio. The prepared mud was dispensed in 365 mL aliquots into 16-ounce (oz.) non-perforated plastic pots with a surface area of 86.59 square centimeters (cm^2) leaving a headspace of 3 centimeters (cm) in each pot. Rice seeds were planted in Sun Gro MetroMix® 306 planting mixture, which typically has a pH of 6.0 to 6.8 and an organic matter content of about 30 percent, in plastic plug trays. Seedlings at the second or third leaf stage of growth were transplanted into 860 mL of mud contained in 32-oz. non-perforated plastic pots with a surface area of 86.59 cm^2 4 days prior to herbicide application. The paddy was created by filling the headspace of the pots with 2.5 to 3 cm of water. When required to ensure good germination and healthy plants, a fungicide treatment and/or other chemical or physical treatment was applied. The plants were grown for 4-22 days in a greenhouse with an approximate 14 h photoperiod which was maintained at about 29° C. during the day and about 26° C. during the night. Nutrients were added as Osmocote® (17:6:10, N:P:K+minor nutrients) at 2 g per 16-oz. pot and 4 g per 32-oz. pot. Water was added on a regular basis to maintain the paddy flood, and supplemental lighting was provided with overhead metal halide 1000-Watt lamps as necessary. The plants were employed for testing when they reached the first through fourth true leaf stage.
(§13) Treatments consisted of the acid or esters of 4-amino-3-chloro-5-fluoro-6-(4-chloro-2-fluoro-3-methoxy-phenyl)pyridine-2-carboxylic acid (compound A) each formulated as an SC (suspension concentrate) and various herbicidal components alone and in combination. Forms of compound A were applied on an acid equivalent basis.
(§14) Other herbicidal components were applied on an active ingredient basis and consisted of clomazone formulated as Command® 3ME.
(§15) Treatment requirements for each compound or herbicidal component were calculated based upon the rates being tested, the concentration of active ingredient or acid equivalent in the formulation, an application volume of 2 mL per component per pot, and an application area of 86.59 cm^2 per pot.
(§16) For formulated compounds, a measured amount was placed in an individual 100 or 200 mL glass vial and was dissolved in a volume of 1.25% (v/v) Agri-Dex® crop oil concentrate to obtain application solutions.
(§17) Applications were made by injecting appropriate amounts of the application solutions with a pipetter, individually and sequentially, into the aqueous layer of the paddy. Control plants were treated in the same manner with the solvent blank. Applications were made so that all treated plant material received the same concentrations of acetone and crop oil concentrate.
(§18) The treated plants and control plants were placed in a greenhouse as described above and water was added as needed to maintain a paddy flood. After approximately 3 weeks the condition of the test plants as compared with that of the untreated plants was determined visually and scored on a scale of 0 to 100 percent where 0 corresponds to no injury or growth inhibition and 100 corresponds to complete kill.
as §8, §9
(§19) A=observed efficacy of active ingredient A at the same concentration as used in the mixture. […]

The test system of assay [7] is SCPMA Bolboschoenus maritimus (L.) Palla clubrush, sea. The description is as above. The procedure: as §1, §12, §13, §14, §15, §16, §17, §18, §8, §9, §19
The subject of assay [8] is CYPDI Cyperus difformis L. sedge, smallflower umbrella. The description is as above. The procedure: as §1, §12, §13, §14, §15, §16, §17, §18, §8, §9, §19
Setting [9] is: Compound A Benzyl Ester 0 gae/ha, Clomazone 56 gai/ha.
[10] abbreviates: Compound A Benzyl Ester 0 gae/ha, Clomazone 112 gai/ha.
[11] abbreviates: Compound A Benzyl Ester 0 gae/ha, Clomazone 224 gai/ha.
[12] abbreviates: Compound A Acid 0 gae/ha, Clomazone 112 gai/ha.
Setting [13] is: Compound A Acid 0 gae/ha, Clomazone 224 gai/ha.
The mark [14] stands for this setting: Compound A Acid 0 gae/ha, Clomazone 448 gai/ha.
Where [15] appears, read: Compound A Acid 4.38 gae/ha, Clomazone 0 gai/ha.
Where [16] appears, read: Compound A Acid 8.75 gae/ha, Clomazone 0 gai/ha.
Setting [17] is: Compound A Acid 17.5 gae/ha, Clomazone 0 gai/ha.
The mark [18] stands for this setting: Compound A Acid 16 gae/ha, Clomazone 0 gai/ha.
The mark [19] stands for this setting: Compound A Benzyl Ester 4.38 gae/ha, Clomazone 0 gai/ha.
The mark [20] stands for this setting: Compound A Benzyl Ester 17.5 gae/ha, Clomazone 0 gai/ha.
The mark [21] stands for this setting: Compound A Benzyl Ester 8 gae/ha, Clomazone 0 gai/ha.
Setting [22] is: Compound A Benzyl Ester 16 gae/ha, Clomazone 0 gai/ha.
Where [23] appears, read: Compound A Benzyl Ester 32 gae/ha, Clomazone 0 gai/ha.

As to `CC1(C)CON(Cc2ccccc2Cl)C1=O` [Clomazone, 2-[(2-chlorophenyl)methyl]-4,4-dimethyl-3-isoxazolidinone], the “Visual Weed Control (%) - 19 DAA Obs” value in assay [1] (setting [9]) was 10%; in assay [1] (setting [10]), 10%; in assay [1] (setting [11]), 10%; in assay [2] (setting [12]) it was 20%; in assay [2] (setting [13]) it was 20%; in assay [3] (setting [9]), 10%. Also, the “Visual Weed Control (%) - 19 DAA Obs” value is reported as 10% in assay [3] (setting [10]); 10% in assay [3] (setting [11]); 0% in assay [4] (Table 1, Compound A Acid 0 gae/ha, Clomazone 56 gai/ha); 0% in assay [4] (Table 1, Compound A Acid 0 gae/ha, Clomazone 112 gai/ha); 15% in assay [4] (Table 1, Compound A Acid 0 gae/ha, Clomazone 224 gai/ha); 0% in assay [4] (Table 2, Compound A Benzyl Ester 0 gae/ha, Clomazone 56 gai/ha). Further, the “Visual Weed Control (%) - 19 DAA Obs” value in assay [4] (Table 2, Compound A Benzyl Ester 0 gae/ha, Clomazone 112 gai/ha) is 0%; in assay [4] (Table 2, Compound A Benzyl Ester 0 gae/ha, Clomazone 224 gai/ha), 15%; in assay [5] (Compound A Acid 0 gae/ha, Clomazone 56 gai/ha), 0%; in assay [5] (setting [12]), 0%; in assay [5] (setting [13]) it was 0%; in assay [7] (Compound A Benzyl Ester 0 gae/ha, Clomazone 670 gai/ha), 0%. In addition, the “Visual Weed Control (%) - 21 DAA Obs” value in assay [6] (setting [12]) worked out at 0%; in assay [6] (Compound A Benzyl Ester 0 gae/ha, Clomazone 448 gai/ha) it was 0%; in assay [7] (setting [10]) it was 0%; in assay [8] (setting [13]), 20%; in assay [8] (setting [14]) it was 40%. The “Visual Weed Control (%) - 22 DAA Obs” value in assay [7] (setting [14]) was found to be 25%.

`COc1c(Cl)ccc(-c2nc(C(=O)O)c(Cl)c(N)c2F)c1F` [Compound A Acid, 4-amino-3-chloro-6-(4-chloro-2-fluoro-3-methoxyphenyl)-5-fluoropyridine-2-carboxylic acid]: the “Visual Weed Control (%) - 19 DAA Obs” value in assay [2] (setting [15]) came to 0%; in assay [2] (setting [16]), 10%; in assay [4] (setting [17]), 55%; in assay [5] (setting [15]), 30%. Moreover, the “Visual Weed Control (%) - 21 DAA Obs” value in assay [6] (setting [16]) stood at 0%; in assay [6] (setting [17]), 30%; in assay [6] (Compound A Acid 35 gae/ha, Clomazone 0 gai/ha) it was 85%; in assay [8] (setting [18]), 30%. The “Visual Weed Control (%) - 22 DAA Obs” value stood at 0% in assay [7] (setting [18]); 0% in assay [7] (Compound A Acid 32 gae/ha, Clomazone 0 gai/ha); 30% in assay [7] (Compound A Acid 64 gae/ha, Clomazone 0 gai/ha).

As for `COc1c(Cl)ccc(-c2nc(C(=O)OCc3ccccc3)c(Cl)c(N)c2F)c1F` [Compound A Benzyl Ester], the “Visual Weed Control (%) - 19 DAA Obs” value stood at 55% in assay [1] (setting [19]); 65% in assay [3] (setting [19]); 30% in assay [4] (setting [20]); 0% in assay [7] (setting [21]); 0% in assay [7] (setting [22]); 0% in assay [7] (setting [23]). For the same molecule, the “Visual Weed Control (%) - 21 DAA Obs” value in assay [6] (setting [21]) amounted to 70%; in assay [6] (setting [22]), 95%; in assay [6] (setting [23]), 90%; in assay [7] (setting [19]) it was 0%; in assay [7] (Compound A Benzyl Ester 8.75 gae/ha, Clomazone 0 gai/ha), 0%; in assay [7] (setting [20]) it was 0%.
